Results on one compound are retold here after patent US20260159503A1, “1,2,3-TRIAZOLE LINKER-CONTAINING COMPOUNDS” (HIGH POINT UNIVERSITY, priority 2024, published 2026).

The target in one assay is T1, human D2R long isoform (Homo sapiens, UniProt P14416).
T1 construct: host or cells: CHO-K1
The assay is described as follows: DiscoverX PathHunter β-arrestin recruitment assay, D2R. The assay is classed as cell-based. The note with it: triazole; antagonist; read-out: potency, β-arrestin recruitment at the D2R. The protocol: (§1) Luminescence was measured on a Hamamatsu FDSS μCell reader.
(§2) Efficacy/antagonist % (Ant. %) values were obtained from nonlinear regression of meaned data obtained from at least three independent experiments with triplicate measures. Values are presented as means±SEM.

A further assay concerns the target T2, human D3R (Homo sapiens, UniProt P35462).
T2 construct: host or cells: CHO-K1
The assay is described as follows: DiscoverX PathHunter β-arrestin recruitment assay, D3R. Type of assay: cell-based. The note with it: triazole; antagonist; read-out: potency, β-arrestin recruitment at the D3R. The procedure:
as §1, §2
In general terms: Arrestin recruitment assays detect the binding of arrestin to an activated receptor.

Each structure is given as a SMILES string. Some results are limits rather than exact numbers.

T2 sequence (P35462 whole entry): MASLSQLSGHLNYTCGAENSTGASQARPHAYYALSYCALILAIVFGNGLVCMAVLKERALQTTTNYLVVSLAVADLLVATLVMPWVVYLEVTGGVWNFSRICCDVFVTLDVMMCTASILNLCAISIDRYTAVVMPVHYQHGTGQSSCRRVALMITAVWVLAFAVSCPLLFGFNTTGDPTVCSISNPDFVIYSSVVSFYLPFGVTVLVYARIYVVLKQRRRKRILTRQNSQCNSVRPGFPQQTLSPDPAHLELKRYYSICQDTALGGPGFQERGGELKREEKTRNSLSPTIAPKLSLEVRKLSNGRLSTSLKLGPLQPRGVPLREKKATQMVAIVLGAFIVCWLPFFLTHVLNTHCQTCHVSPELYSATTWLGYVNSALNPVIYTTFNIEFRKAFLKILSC
T1 sequence (P14416 whole entry, canonical isoform): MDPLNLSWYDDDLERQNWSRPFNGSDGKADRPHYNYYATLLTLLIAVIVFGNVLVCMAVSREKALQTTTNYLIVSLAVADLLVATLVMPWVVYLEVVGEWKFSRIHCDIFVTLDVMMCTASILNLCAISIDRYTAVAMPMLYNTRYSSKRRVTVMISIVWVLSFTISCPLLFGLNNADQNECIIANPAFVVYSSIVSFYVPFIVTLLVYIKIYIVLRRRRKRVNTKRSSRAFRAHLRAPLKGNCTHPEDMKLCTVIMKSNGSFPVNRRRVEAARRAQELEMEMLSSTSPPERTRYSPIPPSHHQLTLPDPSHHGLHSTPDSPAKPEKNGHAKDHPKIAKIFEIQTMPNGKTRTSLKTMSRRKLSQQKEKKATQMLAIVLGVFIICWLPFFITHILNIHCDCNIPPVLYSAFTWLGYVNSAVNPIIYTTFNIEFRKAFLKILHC

On to `Cc1cccc(-n2cc(CN3CCC(c4ccccc4)CC3)nn2)c1` [Compound 14, 4-phenyl-1-((1-(m-tolyl)-1H-1,2,3-triazol-4-yl)methyl)piperidine], for which the IC50 at human D2R long isoform and on human D3R was more than 6 µM each time.
